Tests used:
[1] = test system: MV4-11 cells, a human AML cell line; assay: In vivo efficacy in MV4-11 disseminated xenograft model; set-up: species or system mice; conditions: cytarabine alone 75 mg/kg QD×5 days 24-28
Protocol: (§1) The measured end-point was survival. […] Spontaneous deaths were recorded when they were discovered. For disseminated models, Tumor Growth Delay is calculated as T−C, where T is the median survival time (in days) of a treated group and C is the median survival time (in days) of the vehicle control group. The Percent Increased Life Span (% ILS) for disseminated models is calculated using the following formula: % ILS=(T−C)/C×100%.
The cyclophosphamide (Sigma, C0768, Lot # MKBX1822V) was dissolved in 0.9% NaCl and was administered intraperitoneally to the mice on day −3 and day −2 prior to MV4-11 cell inoculation.
Following cyclophosphamide treatment as described above, the mice were each injected intravenously in the lateral tail vein with 3×10^6 MV4-11 cells, a human AML cell line, in 100 μl of serum-free medium on day 0 in the study.
Cytarabine was given once a day (QD) at a dose of 75 mg/kg for five consecutive days (×5) and always administered on the same fixed set of days in the study time line: days 24, 25, 26, 27 and 28.
Lastly, Group K received QW×3 dosing of 1 μg/kg by DGN462 (0.0556 mg/kg by antibody) of a non-targeted control conjugate, Ab-DGN462, on a day 21, 28 and 35 dosing schedule (“Day 21”, with FcR blocking).

[2] = test system: Molm-13 cells, a human AML cell line; assay: In vivo efficacy in Molm-13 disseminated xenograft model; set-up: species or system mice; conditions: cytarabine alone 75 mg/kg QD×5 days 7-11
Protocol: as §1
The cyclophosphamide (Sigma, C0768, Lot # MKBX1822V) was dissolved in 0.9% NaCl and was administered intraperitoneally to the mice on day −2 prior to Molm-13 cell inoculation on day 0.
Following cyclophosphamide treatment as described above, the mice were each injected intravenously in the lateral tail vein with 2×10^5 Molm-13 cells, a human AML cell line, in 100 μl of serum-free medium on day 0 in the study.
Cytarabine, in contrast, was given once a day (QD) at a dose of 75 mg/kg for five consecutive days (×5) and always on a fixed set of days in the study time line: Days 7, 8, 9, 10 and 11.
The results are represented in Table 5 (below) and in FIG. 3.

[3] = test system: EOL-1 cells, a human AML cell line; assay: In vivo efficacy in EOL-1 subcutaneous xenograft model; conditions: EOL-1 sc xenograft; IMGN779 5 μg/kg day 10; cytarabine 75 mg/kg days 10-14; text: long-term CRs on day 90
Protocol: The mice were weighed twice a week and were monitored for clinical signs throughout the duration of the study. Animals were euthanized when hind leg paralysis was present, body weight decreased by >20% of pre-treatment weight, tumor ulceration occurred, or when any signs of distress were visible. Tumor volumes were measured one to two times weekly in three dimensions using a caliper. […] Tumor Growth Inhibition (T/C Value) was also assessed using the following formula: T/C (%)=(Median tumor volume of the treated/Median tumor volume of the control)×100%. Tumor volume was determined simultaneously for the treated (T) and the vehicle control (C) groups when tumor volume of the vehicle control reached a predetermined size (Bissery et al., Cancer Res. 51: 4845-52 (1991). The daily median tumor volume of each treated group was determined, including tumor-free mice (0 mm^3). According to NCI standards, a T/C≤42% is the minimum level of anti-tumor activity. A T/C<10% is considered a high anti-tumor activity level.
Female athymic nude mice were each inoculated with 1×10^7 EOL-1 cells, a human AML cell line, in 100 μl serum free medium subcutaneously in the right flank. […]

MOLM-13 = assay: In vitro CD33 expression post-treatment with cytarabine (flow cytometry, PE anti-CD33); type: cell-based, human; conditions: cytarabine 400 nM, 15, 24, 39, 48 hours post-treatment
Protocol: (§2) CD33 expression was assessed post-treatment with cytarabine. In these experiments, two AML cell lines with cell surface display of CD33 and cytarabine sensitivity were used: MV4-11 and MOLM-13. The potency-relative doses were chosen for each treatment, relative to IC50s generated from 96-hour cytotoxicity assays. […] Time points at 15 hours, 24 hours, 39 hours, and 48 hours post-treatment with cytarabine were chosen for cell surface CD33 assessment. Cells were stained with, then washed of excess, PE-conjugated anti-CD33 mAb. Flow cytometric analyses of PE MFI were run on a FACSCanto II flow cytometer. PE-MFIs at each timepoint were normalized to PE-MFIs of untreated control samples and normalized PE-MFIs were considered to represent relative fold-changes in surface CD33 binding sites.

MV4-11 = assay: as above; type: cell-based, human; conditions: cytarabine 2,500 nM, 15, 24, 39, 48 hours post-treatment
Protocol: as §2

CD33 = CD33 (Homo sapiens, UniProt P20138); conditions: CD33 on the surface of CD33-positive cells; cited from earlier work
Chain of CD33 (P20138 18-364): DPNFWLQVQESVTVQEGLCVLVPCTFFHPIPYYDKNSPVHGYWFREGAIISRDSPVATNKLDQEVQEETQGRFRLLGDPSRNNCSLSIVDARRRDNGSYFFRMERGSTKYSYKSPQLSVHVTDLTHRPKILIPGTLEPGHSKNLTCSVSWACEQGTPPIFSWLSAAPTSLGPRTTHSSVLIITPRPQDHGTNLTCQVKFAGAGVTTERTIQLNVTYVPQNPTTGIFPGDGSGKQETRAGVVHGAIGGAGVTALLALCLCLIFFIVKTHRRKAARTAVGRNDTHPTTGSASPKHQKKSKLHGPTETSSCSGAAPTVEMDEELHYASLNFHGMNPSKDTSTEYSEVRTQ

Compound | Median Survival Time ([1]; NOD SCID mice) [days] | % Increased Life Span (ILS) [1] [%] | Result [1] | Tumor Growth Delay (T-C, Days) [1] [days] | Median Survival Time ([2]; NOD SCID mice) [days] | % Increased Life Span (ILS) [2] [%] | Result [2] | Tumor Growth Delay (T-C, Days) [2] [days] | Tumor Free Survivors (Day 90) [3] | CD33 transcription and cell surface expression (MOLM-13) | CD33 transcription and cell surface expression (MV4-11) | binding affinity to CD33 (CD33)
Nc1ccn([C@@H]2O[C@H](CO)[C@@H](O)[C@@H]2O)c(=O)n1 [Cytarabine, cytosine arabinoside] | 46 | 0 | Inactive | 0 | 20 | 0 | Inactive | 0 | 0/6 | dose- and time-dependent increase | dose- and time-dependent increase | 
My9-6: murine anti-CD33 antibody from which huMy9-6 is derived |  |  |  |  |  |  |  |  |  |  |  | high affinity

— patent US20190160089A1, “COMBINATION TREATMENT WITH ANTIBODY-DRUG CONJUGATES AND CYTARABINE” (IMMUNOGEN, INC., priority 2017, published 2019)
